Read-outs that look alike come from different tables or passages of the source. Each block holds one molecule with its values, some of them ahead of it.
Key:
[1] = Blocking experiments: inhibition of radiotracer accumulation in the rat by coadministered compound; type: in vivo, rat (male Wistar); settings: rat, iv, rat, iv, 60 min
Method: (§1) *Animals in group 1 received an iv injection of (+)4-[^125 l]HIPP
(§2) only. For groups 2, 3, and 4, the radiotracer was coadministered with the
(§3) hydrochlorides of (+)7 (0.53 mg/kg), (-)7 (0.53 mg/kg) and vesamicol (0.3
(§4) Four groups of male Wistar rats (n=3) were used in these experiments. All animals received an iv dose of 8-10 μCi of the radiotracer in 0.1 ml of 50% aq. ethanol. Additionally, in groups 2, 3 and 4, the radiotracer was coadministered with (+)-HBrPP.HCl(1.3 μmol/kg), (-)-HBrPP.HCl(1.3 μmol/kg) and (dl)-vesamicol hydrochloride (1.1 μmol/kg), respectively. At 60 min. post-injection, blood was collected by cardiac puncture and the animals sacrificed as described above. The data was analyzed as outlined above.
(§5) NOTE: The dose of radiotracer injected was 5-7 mCi. Group I was the
(§6) control, injected with the radiotracer only. Group II included the
(§7) simultaneous injection of "cold"(dl)3-HIPP (HCl) (0.53 mg/kg). Group III
(§8) included the simultaneous injection of (dl) vesamicol (HCl) (0.31 mg/kg).
(§9) All rats were sacrificed at one hour postinjection.
(§10) NOTE: Group I was the control, injected with the radiotracer only. Group
(§11) II included the simultaneous injection of "cold"(dl)3-HIPP (HCl) (0.53
(§12) mg/kg). Group III included the simultaneous injection of (dl) vesamicol
(§13) hydrochloride (0.31 mg/kg). The dose of radiotracer was 8-9 μCi. All
(§14) rats were sacrificed at one hour postinjection.
(§15) NOTE: Group I received (+)[^125 l]13 only. Group II received the (+)
(§16) radiotracer coinjected with 0.31 mg/kg (dl)vesamicol hydrochloride. Group
(§17) III received (-)[^125 l]13 only. Group IV received the (-) radiotrace
(§18) coinjected with 0.31 mg/kg (dl)vesamicol hydrochloride. All animals were
(§19) sacrificed at one hour postinjection. The dose of radiotracer injected pe

[2] = Tissue distribution (biodistribution) of radioiodinated compound in the rat; settings: for Brain: Blood Ratio / Heart: Blood Ratio / radioactivity in blood / radioactivity in brain / radioactivity in heart / radioactivity in kidney / radioactivity in liver / radioactivity in lung / radioactivity in muscle / radioactivity in spleen: iv
vesamicol receptor = experiment: Blocking experiments: inhibition of radiotracer accumulation in the rat by coadministered compound; type: in vivo, rat (male Wistar); settings: for radioactivity in heart / Brain: Blood Ratio / Heart: Blood Ratio / radioactivity in blood / radioactivity in brain / radioactivity in kidney / radioactivity in liver / radioactivity in lung / radioactivity in muscle / radioactivity in spleen: iv, 60 min
Method: as §1, §2, §3, §4, §5, §6, §7, §8, §9, §10, §11, §12, §13, §14, §15, §16, §17, §18, §19

[3] = rat, + (dl)-vesamicol HCl 0.3 (Table 3) or 0.31 mg/kg
[4] = rat, radiotracer only (control)

Compound: OC(Cc1ccc([125I])cc1)CN1CCC(c2ccccc2)CC1 (single isomer, unassigned; (-)) [(-)-4-[^125 l]HIPP, 2-Hydroxy-3-(4-iodophenyl)-1-(4-phenylpiperidyl)propane]
tissue uptake at 1 h ([1]; blood, + (+)-7 HCl 0.53 mg/kg, read-out: radioactivity in blood): 0.05 %ID/g
tissue uptake at 1 h ([1]; blood, + (-)-7 HCl 0.53 mg/kg, read-out: radioactivity in blood): 0.04 %ID/g
tissue uptake at 1 h ([1]; blood, + (dl)-vesamicol HCl 0.3 (Table 3) or 0.31 mg/kg, read-out: radioactivity in blood): 0.02 %ID/g
tissue uptake at 1 h ([1]; blood, radiotracer only (control), read-out: radioactivity in blood): 0.02 %ID/g
tissue uptake at 1 h ([1]; brain, + (+)-7 HCl 0.53 mg/kg, read-out: radioactivity in brain): 0.28 %ID/g
tissue uptake at 1 h ([1]; brain, + (-)-7 HCl 0.53 mg/kg, read-out: radioactivity in brain): 0.29 %ID/g
tissue uptake at 1 h ([1]; brain, + (dl)-vesamicol HCl 0.3 (Table 3) or 0.31 mg/kg, read-out: radioactivity in brain): 0.31 %ID/g
tissue uptake at 1 h ([1]; brain, radiotracer only (control), read-out: radioactivity in brain): 0.93 %ID/g
tissue uptake at 1 h ([1]; heart, + (+)-7 HCl 0.53 mg/kg, read-out: radioactivity in heart): 0.12 %ID/g
tissue uptake at 1 h ([1]; heart, + (-)-7 HCl 0.53 mg/kg, read-out: radioactivity in heart): 0.13 %ID/g
tissue uptake at 1 h ([1]; heart, + (dl)-vesamicol HCl 0.3 (Table 3) or 0.31 mg/kg, read-out: radioactivity in heart): 0.13 %ID/g
tissue uptake at 1 h ([1]; heart, radiotracer only (control), read-out: radioactivity in heart): 0.79 %ID/g
tissue uptake at 1 h ([1]; kidney, + (+)-7 HCl 0.53 mg/kg, read-out: radioactivity in kidney): 0.46 %ID/g
tissue uptake at 1 h ([1]; kidney, + (-)-7 HCl 0.53 mg/kg, read-out: radioactivity in kidney): 0.42 %ID/g
tissue uptake at 1 h ([1]; kidney, + (dl)-vesamicol HCl 0.3 (Table 3) or 0.31 mg/kg, read-out: radioactivity in kidney): 0.35 %ID/g
tissue uptake at 1 h ([1]; kidney, radiotracer only (control), read-out: radioactivity in kidney): 1.9 %ID/g
tissue uptake at 1 h ([1]; liver, + (dl)-vesamicol HCl 0.3 (Table 3) or 0.31 mg/kg, read-out: radioactivity in liver): 4.18 %ID/g
tissue uptake at 1 h ([1]; liver, radiotracer only (control), read-out: radioactivity in liver): 2.68 %ID/g
tissue uptake at 1 h ([1]; lung, + (+)-7 HCl 0.53 mg/kg, read-out: radioactivity in lung): 1.64 %ID/g
tissue uptake at 1 h ([1]; lung, + (-)-7 HCl 0.53 mg/kg, read-out: radioactivity in lung): 1.04 %ID/g
tissue uptake at 1 h ([1]; lung, + (dl)-vesamicol HCl 0.3 (Table 3) or 0.31 mg/kg, read-out: radioactivity in lung): 0.95 %ID/g
tissue uptake at 1 h ([1]; lung, radiotracer only (control), read-out: radioactivity in lung): 3.63 %ID/g
tissue uptake at 1 h ([1]; muscle, + (+)-7 HCl 0.53 mg/kg, read-out: radioactivity in muscle): 0.07 %ID/g
tissue uptake at 1 h ([1]; muscle, + (-)-7 HCl 0.53 mg/kg, read-out: radioactivity in muscle): 0.08 %ID/g
tissue uptake at 1 h ([1]; muscle, + (dl)-vesamicol HCl 0.3 (Table 3) or 0.31 mg/kg, read-out: radioactivity in muscle): 0.06 %ID/g
tissue uptake at 1 h ([1]; muscle, radiotracer only (control), read-out: radioactivity in muscle): 0.21 %ID/g
tissue uptake at 1 h ([1]; spleen, + (+)-7 HCl 0.53 mg/kg, read-out: radioactivity in spleen): 0.57 %ID/g
tissue uptake at 1 h ([1]; spleen, + (-)-7 HCl 0.53 mg/kg, read-out: radioactivity in spleen): 0.57 %ID/g
tissue uptake at 1 h ([1]; spleen, + (dl)-vesamicol HCl 0.3 (Table 3) or 0.31 mg/kg, read-out: radioactivity in spleen): 0.6 %ID/g
tissue uptake at 1 h ([1]; spleen, radiotracer only (control), read-out: radioactivity in spleen): 1.42 %ID/g

decrease of concentration in the brain ([2]; rat, 3 hours post-injection vs initial, listed as (-)-[^125 I]13): 85%
initial accumulation in the rat brain ([2]; rat, initial, listed as (-)-[^125 I]13): 1.69 % of the injected dose
Brain: Blood Ratio ([2]; rat, 5 min): 8.7
Heart: Blood Ratio ([2]; rat, 5 min): 6.2
radioactivity in blood ([2]; rat, 5 min): 0.13 % dose/g
radioactivity in brain ([2]; rat, 5 min): 1.08 % dose/g
radioactivity in heart ([2]; rat, 5 min): 0.77 % dose/g
radioactivity in kidney ([2]; rat, 5 min): 3.38 % dose/g
radioactivity in liver ([2]; rat, 5 min): 1.72 % dose/g
radioactivity in lung ([2]; rat, 5 min): 5.05 % dose/g
radioactivity in muscle ([2]; rat, 5 min): 0.32 % dose/g
radioactivity in spleen ([2]; rat, 5 min): 0.70 % dose/g
Brain: Blood Ratio ([2]; rat, 60 min): 11.1
Heart: Blood Ratio ([2]; rat, 60 min): 2.0
radioactivity in blood ([2]; rat, 60 min): 0.06 % dose/g
radioactivity in brain ([2]; rat, 60 min): .70 % dose/g
radioactivity in heart ([2]; rat, 60 min): 0.13 % dose/g
radioactivity in kidney ([2]; rat, 60 min): 1.47 % dose/g
radioactivity in liver ([2]; rat, 60 min): 1.90 % dose/g
radioactivity in lung ([2]; rat, 60 min): 0.54 % dose/g
radioactivity in muscle ([2]; rat, 60 min): 0.11 % dose/g
radioactivity in spleen ([2]; rat, 60 min): 0.57 % dose/g
Brain: Blood Ratio ([2]; rat, 180 min): 5.5
Heart: Blood Ratio ([2]; rat, 180 min): 0.9
radioactivity in blood ([2]; rat, 180 min): 0.06 % dose/g
radioactivity in brain ([2]; rat, 180 min): 0.35 % dose/g
radioactivity in heart ([2]; rat, 180 min): 0.05 % dose/g
radioactivity in kidney ([2]; rat, 180 min): 0.74 % dose/g
radioactivity in liver ([2]; rat, 180 min): 0.98 % dose/g
radioactivity in lung ([2]; rat, 180 min): 0.24 % dose/g
radioactivity in muscle ([2]; rat, 180 min): 0.05 % dose/g
radioactivity in spleen ([2]; rat, 180 min): 0.23 % dose/g
radioactivity in heart (vesamicol receptor; [3]): 0.08 % dose/g of tissue
Brain: Blood Ratio (vesamicol receptor; [3]): 1.61
Heart: Blood Ratio (vesamicol receptor; [3]): 0.99
radioactivity in blood (vesamicol receptor; [3]): 0.08 % dose/g of tissue
radioactivity in brain (vesamicol receptor; [3]): 0.13 % dose/g of tissue
radioactivity in kidney (vesamicol receptor; [3]): 0.38 % dose/g of tissue
radioactivity in liver (vesamicol receptor; [3]): 1.44 % dose/g of tissue
radioactivity in lung (vesamicol receptor; [3]): 0.34 % dose/g of tissue
radioactivity in muscle (vesamicol receptor; [3]): 0.07 % dose/g of tissue
radioactivity in spleen (vesamicol receptor; [3]): 0.27 % dose/g of tissue
Brain: Blood Ratio (vesamicol receptor; [4]): 7.41
Heart: Blood Ratio (vesamicol receptor; [4]): 1.31
radioactivity in blood (vesamicol receptor; [4]): 0.10 % dose/g of tissue
radioactivity in brain (vesamicol receptor; [4]): 0.73 % dose/g of tissue
radioactivity in heart (vesamicol receptor; [4]): 0.13 % dose/g of tissue
radioactivity in kidney (vesamicol receptor; [4]): 1.26 % dose/g of tissue
radioactivity in liver (vesamicol receptor; [4]): 1.66 % dose/g of tissue
radioactivity in lung (vesamicol receptor; [4]): 0.66 % dose/g of tissue
radioactivity in muscle (vesamicol receptor; [4]): 0.11 % dose/g of tissue
radioactivity in spleen (vesamicol receptor; [4]): 0.61 % dose/g of tissue
Compound: OC(CN1CCC(c2ccccc2)CC1)c1ccc([125I])cc1 (single isomer, unassigned; (-)) [(-)-[^125 l]13] [1-(4-Iodophenyl)-2-(4-phenylpiperidinyl)ethanol]

Compound: OC(Cc1ccc(I)cc1)CN1CCC(c2ccccc2)CC1 (racemic) [Compound 5, (dl)-2-Hydroxy-3-(4-iodophenyl)-1-(4-phenylpiperidyl)propane]
brain retention (in words) ([2]; rodent (and monkey)): prolonged brain retention
vesamicol receptor ligand (in words) (vesamicol receptor; conclusion from blocking and regional distribution in vivo): potent ligand
effect of coadministered vesamicol on accumulation (in words) (vesamicol receptor; rat): can be blocked by vesamicol
